Test results taken from ChEMBL document CHEMBL5724914, “Linking interpersonal differences in gut microbiota composition and drug biotransformation activity” (2024).

Key:
[1] = human gut metagenome, 24 h, 2 µM
[2] = (§1) The drug is tested on Z-025 corresponding to rabbit gut metagenome with ENA study accession number: PRJEB37062 and ENA sample accession number: ERS12561824 for biotransformation under anaerobic condition. The drug concentrations were measured over 9 timepoints collected between 0 and 24 hours of incubation by liquid-chromatography-coupled mass spectrometry (LC–MS); conditions: 2 µM
[3] = as §1, with “WLS-086” for “Z-025”, “human” for “rabbit”, “ERS12561752” for “ERS12561824”; conditions: 2 µM
[4] = human gut metagenome, 24 h, 2 µM; remark: listed apart in the source
[5] = human gut metagenome, 24 h, 2 µM; remark: listed apart in the source
[6] = as §1, with “Z-009” for “Z-025”, “pig” for “rabbit”, “ERS12561809” for “ERS12561824”; conditions: 2 µM
[7] = human gut metagenome, 24 h, 2 µM; remark: listed apart in the source
[8] = as §1, with “Z-017” for “Z-025”, “mouse” for “rabbit”, “ERS12561816” for “ERS12561824”; conditions: 2 µM
[9] = human gut metagenome, 24 h, 2 µM; remark: listed apart in the source
[10] = as §1, with “WLS-082” for “Z-025”, “human” for “rabbit”, “ERS12561751” for “ERS12561824”; conditions: 2 µM
[11] = as §1, with “Z-005” for “Z-025”, “to” for “to rabbit gut”, “ERS12561805” for “ERS12561824”; conditions: 2 µM
[12] = human gut metagenome, 24 h, 2 µM; remark: listed apart in the source
[13] = as §1, with “Z-028” for “Z-025”, “mouse” for “rabbit”, “ERS12561827” for “ERS12561824”; conditions: 2 µM
[14] = as §1, with “Z-024” for “Z-025”, “pig” for “rabbit”, “ERS12561823” for “ERS12561824”; conditions: 2 µM
[15] = as §1, with “WLS-073” for “Z-025”, “human” for “rabbit”, “ERS12561749” for “ERS12561824”; conditions: 2 µM
[16] = human gut metagenome, 24 h, 2 µM; remark: listed apart in the source
[17] = as §1, with “Z-018” for “Z-025”, “pig” for “rabbit”, “ERS12561817” for “ERS12561824”; conditions: 2 µM
[18] = as §1, with “WLS-006” for “Z-025”, “human” for “rabbit”, “ERS12561741” for “ERS12561824”; conditions: 2 µM
[19] = human gut metagenome, 24 h, 2 µM; remark: listed apart in the source
[20] = human gut metagenome, 24 h, 2 µM; remark: listed apart in the source
Further: call rule not given here.

Row | Structure (SMILES) | Bacterial Biotransformation [1] | Bacterial Biotransformation [2] | Bacterial Biotransformation [3] | Bacterial Biotransformation [4] | Bacterial Biotransformation [5] | Bacterial Biotransformation [6] | Bacterial Biotransformation [7] | Bacterial Biotransformation [8] | Bacterial Biotransformation [9] | Bacterial Biotransformation [10] | Bacterial Biotransformation [11] | Bacterial Biotransformation [12] | Bacterial Biotransformation [13] | Bacterial Biotransformation [14] | Bacterial Biotransformation [15] | Bacterial Biotransformation [16] | Bacterial Biotransformation [17] | Bacterial Biotransformation [18] | Bacterial Biotransformation [19] | Bacterial Biotransformation [20]
1 | O=C(NC(Cc1cc(=O)[nH]c2ccccc12)C(=O)O)c1ccc(Cl)cc1 (stereo not given) [REBAMIPIDE] | Compound NOT metabolized | Compound NOT metabolized | Compound metabolized | Compound NOT metabolized | Compound NOT metabolized | Compound NOT metabolized | Compound metabolized | Compound NOT metabolized | Compound NOT metabolized | Compound NOT metabolized | Compound NOT metabolized | Compound NOT metabolized | Compound NOT metabolized | Compound metabolized | Compound NOT metabolized | Compound NOT metabolized | Compound NOT metabolized | Compound NOT metabolized | Compound NOT metabolized | Compound NOT metabolized
2 | CCOc1cc(CC(=O)N[C@@H](CC(C)C)c2ccccc2N2CCCCC2)ccc1C(=O)O [REPAGLINIDE] | Compound metabolized | Compound NOT metabolized | Compound metabolized | Compound metabolized | Compound metabolized | Compound metabolized | Compound metabolized | Compound metabolized | Compound metabolized | Compound metabolized | Compound metabolized | Compound metabolized | Compound metabolized | Compound metabolized | Compound metabolized | Compound NOT metabolized | Compound NOT metabolized | Compound metabolized | Compound metabolized | Compound metabolized
3 | CCN(C)C(=O)Oc1cccc([C@H](C)N(C)C)c1.O=C(O)C(O)C(O)C(=O)O [RIVASTIGMINE TARTRATE] | Compound metabolized | Compound NOT metabolized | Compound NOT metabolized | Compound NOT metabolized | Compound metabolized | Compound NOT metabolized | Compound NOT metabolized | Compound NOT metabolized | Compound NOT metabolized | Compound NOT metabolized | Compound NOT metabolized | Compound NOT metabolized | Compound NOT metabolized | Compound NOT metabolized | Compound NOT metabolized | Compound NOT metabolized | Compound NOT metabolized | Compound NOT metabolized | Compound NOT metabolized | Compound NOT metabolized
4 | O=C(O)CCC(=O)O.O=C(O[C@H]1CN2CCC1CC2)N1CCc2ccccc2[C@@H]1c1ccccc1 [SOLIFENACIN SUCCINATE] | Compound NOT metabolized | Compound metabolized | Compound metabolized | Compound NOT metabolized | Compound NOT metabolized | Compound metabolized | Compound metabolized | Compound NOT metabolized | Compound metabolized | Compound metabolized | Compound metabolized | Compound NOT metabolized | Compound NOT metabolized | Compound metabolized | Compound metabolized | Compound NOT metabolized | Compound metabolized | Compound metabolized | Compound metabolized | Compound NOT metabolized
5 | O=C(CCCN1CCC2(CC1)C(=O)NCN2c1ccccc1)c1ccc(F)cc1 [SPIPERONE] | Compound NOT metabolized | Compound NOT metabolized | Compound metabolized | Compound NOT metabolized | Compound NOT metabolized | Compound metabolized | Compound NOT metabolized | Compound NOT metabolized | Compound NOT metabolized | Compound NOT metabolized | Compound NOT metabolized | Compound NOT metabolized | Compound NOT metabolized | Compound NOT metabolized | Compound NOT metabolized | Compound NOT metabolized | Compound NOT metabolized | Compound metabolized | Compound NOT metabolized | Compound NOT metabolized

Now from value to compound:

Row | Bacterial Biotransformation [1] | Bacterial Biotransformation [2] | Bacterial Biotransformation [3] | Bacterial Biotransformation [4] | Bacterial Biotransformation [5] | Bacterial Biotransformation [6] | Bacterial Biotransformation [7] | Bacterial Biotransformation [8] | Bacterial Biotransformation [9] | Bacterial Biotransformation [10] | Bacterial Biotransformation [11] | Bacterial Biotransformation [12] | Bacterial Biotransformation [13] | Bacterial Biotransformation [14] | Bacterial Biotransformation [15] | Bacterial Biotransformation [16] | Bacterial Biotransformation [17] | Bacterial Biotransformation [18] | Bacterial Biotransformation [19] | Bacterial Biotransformation [20] | Structure (SMILES)
6 | Compound NOT metabolized | Compound NOT metabolized | Compound NOT metabolized | Compound NOT metabolized | Compound NOT metabolized | Compound NOT metabolized | Compound NOT metabolized | Compound NOT metabolized | Compound NOT metabolized | Compound NOT metabolized | Compound NOT metabolized | Compound NOT metabolized | Compound NOT metabolized | Compound NOT metabolized | Compound NOT metabolized | Compound NOT metabolized | Compound NOT metabolized | Compound NOT metabolized | Compound NOT metabolized | Compound NOT metabolized | CC(N)C12CC3CC(CC(C3)C1)C2 (stereo not given) [RIMANTADINE]
7 | Compound NOT metabolized | Compound NOT metabolized | Compound metabolized | Compound metabolized | Compound NOT metabolized | Compound NOT metabolized | Compound NOT metabolized | Compound NOT metabolized | Compound metabolized | Compound NOT metabolized | Compound NOT metabolized | Compound NOT metabolized | Compound NOT metabolized | Compound NOT metabolized | Compound NOT metabolized | Compound NOT metabolized | Compound metabolized | Compound NOT metabolized | Compound NOT metabolized | Compound NOT metabolized | CCCN(CCC)CCc1cccc2c1CC(=O)N2 [ROPINIROLE]
8 | Compound NOT metabolized | Compound NOT metabolized | Compound metabolized | Compound NOT metabolized | Compound NOT metabolized | Compound NOT metabolized | Compound NOT metabolized | Compound NOT metabolized | Compound metabolized | Compound NOT metabolized | Compound NOT metabolized | Compound NOT metabolized | Compound NOT metabolized | Compound NOT metabolized | Compound NOT metabolized | Compound NOT metabolized | Compound NOT metabolized | Compound metabolized | Compound NOT metabolized | Compound NOT metabolized | CCOc1ccccc1OCCN[C@H](C)Cc1ccc(OC)c(S(N)(=O)=O)c1.Cl [TAMSULOSIN HYDROCHLORIDE]
